The source of these data is the OligoGym collection.

Values joined by “and” are separate entries in the source; they are usually repeats but may differ in a detail not shown here. Identical values can stand only once. After the bases stand the sugars from the 5' end (letter, count) and the backbone: PS all phosphorothioate, else s phosphorothioate and o phosphodiester by linkage. Methylation of C is not given here. e = 2'-O-(2-methoxyethyl) (MOE); k = constrained ethyl (cEt); d = 2'-deoxy (DNA)

In this series the target is IRF4. The settings on record: ASO.

For the sequence TATAGAGCATCACTAT (sugars k3 d10 k3, PS), for the setting “SK-MEL-28, 4 µM”, the target mRNA inhibition was found to be 41%.
With CCCAATAGTCTAGCTG (sugars k3 d10 k3, PS), the target mRNA inhibition (SK-MEL-28, 4 µM) turned out to be 56%.
With GCACATCAATGTTTTA (sugars k3 d10 k3, PS), the target mRNA inhibition (SK-MEL-28, 4 µM) stood at 67%.
On to TAAAGGAGTGCAGGAG (sugars k3 d10 k3, PS), for which, for the setting “SK-MEL-28, 4 µM”, the target mRNA inhibition was -7%.
In the case of TCTTTATAGTAGGTAA (sugars k3 d10 k3, PS), the target mRNA inhibition (MM.1R, 1 µM) was 14%.
On the same count and under the same terms, for CCGTTCCTTTTTTAGT (sugars k3 d10 k3, PS) the value was -3%.
As for TAAGGAACAAGTGTAT (sugars k3 d10 k3, PS), the target mRNA inhibition (SK-MEL-28, 4 µM) is 18%.
Regarding CCACGAAGGGCAGTGC (sugars k3 d10 k3, PS), the target mRNA inhibition (MM.1R, 1 µM) was 0%.
CAGTGACTTGCATCCA (sugars k3 d10 k3, PS): the target mRNA inhibition (MM.1R, 0.0625 µM) was 40% and 20%; the target mRNA inhibition (MM.1R, 0.25 µM) was 43% and 24%; the target mRNA inhibition (MM.1R, 1 µM) is 53% and 38%; the target mRNA inhibition (MM.1R, 4 µM) was 75% and 61%.
In the case of “CTATAGTGTTCCAGGA (sugars e1 k2 d9 k2 e2, PS)”, the target mRNA inhibition (MM.1R, 1 µM) worked out at 8%.
Turning to CAAGACAAATCTTCTG (sugars k3 d10 k3, PS), under “SK-MEL-28, 4 µM”, the target mRNA inhibition stood at 13%.
ATGGACCACGCAGCCT (sugars k3 d10 k3, PS): the target mRNA inhibition (SK-MEL-28, 4 µM) is 39%.
CTGGAGAGAACTCATG (sugars k3 d10 k3, PS): where the note is “SK-MEL-28, 4 µM”, the target mRNA inhibition is 38%.
Take “AGCAGTGATGTCAGGT (sugars kddddddddddkekek, PS)”: the target mRNA inhibition runs as follows: (MM.1R, 0.0625 µM) 37%; (MM.1R, 0.25 µM) 50%; (MM.1R, 1 µM) 77% and 67% and 68%; (MM.1R, 4 µM) 84%.
Consider TGACAGCCGAAGCATT (sugars k3 d10 k3, PS), for which the target mRNA inhibition (SK-MEL-28, 4 µM) was found to be 38%.
On the same count and under the same terms, for AGATAACATGAGAGTG (sugars k3 d10 k3, PS) the value was 41%; for ATCAAGTAAAGTGATC (sugars k3 d10 k3, PS), 29%.
Take TTCAGTTGTAAATGAG (sugars k3 d10 k3, PS): the target mRNA inhibition (SK-MEL-28, 4 µM) worked out at 56%.
On the same count and under the same terms, for AGGAAGTTTACTAACT (sugars k3 d10 k3, PS) the value was 58%.
ATCCGAAAAGACTGGA (sugars k3 d10 k3, PS): the target mRNA inhibition (MM.1R, 1 µM) is -20%.
As to CAAGAACTGCAGCTCC (sugars k3 d10 k3, PS), the target mRNA inhibition (SK-MEL-28, 4 µM) worked out at 47%.
The same measure, in the same setting: for GCAAAACGCAGAGCCA (sugars k3 d10 k3, PS) the value was 57%.
As to TACGCTTATTTTTCCA (sugars k3 d10 k3, PS), the target mRNA inhibition by setting is: (MM.1R, 0.0625 µM) 1% and 12%; (MM.1R, 0.25 µM) 29% and 44%; (MM.1R, 1 µM) 51% and 56%; (MM.1R, 4 µM) 65% and 77%.
In the case of TCCCACTGTCACTATG (sugars k3 d10 k3, PS), where the note is “SK-MEL-28, 4 µM”, the target mRNA inhibition turned out to be 15%.
Same read-out and setting: for TCACAGATTAATAGTA (sugars k3 d10 k3, PS) the value was 23%.
As to GGGTGGCATCATGTAG (sugars k3 d10 k3, PS), the target mRNA inhibition (MM.1R, 1 µM) worked out at 27%.
Turning to ATGATAAGGCACTACT (sugars k3 d10 k3, PS), under “SK-MEL-28, 4 µM”, the target mRNA inhibition came out at 13%.
For the sequence CTTGGTTCTCTATAGT (sugars k3 d10 k3, PS), the target mRNA inhibition (MM.1R, 1 µM) was 27%.
Consider TTACTAGGTGCTTGTT (sugars k3 d10 k3, PS), for which the target mRNA inhibition (SK-MEL-28, 4 µM) is 50%.
On the same count and under the same terms, for CTCTCCAGGTGGCTCA (sugars k3 d10 k3, PS) the value was 13%.
As for TGTTACTTGCCACAGT (sugars k3 d10 k3, PS), the target mRNA inhibition (SK-MEL-28, 4 µM) was determined as 39%.
Regarding TATACTTAAGCAAGTG (sugars k3 d10 k3, PS), the target mRNA inhibition (SK-MEL-28, 4 µM) stood at 47%.
Regarding TGGTACACCTCTTCAC (sugars k3 d10 k3, PS), the target mRNA inhibition (SK-MEL-28, 4 µM) was 32%.
As to AGCCAGCCAGAGGTTC (sugars k3 d10 k3, PS), the target mRNA inhibition (SK-MEL-28, 4 µM) worked out at 30%.
For the sequence TGTAAGTGATAGGTAT (sugars k3 d10 k3, PS), the target mRNA inhibition (SK-MEL-28, 4 µM) came to 53%.
For TTACTGTTACCGATGC (sugars k3 d10 k3, PS), the target mRNA inhibition (MM.1R, 1 µM) was 26% and 35%.
As to CACCATGGCACAGTCT (sugars k3 d10 k3, PS), where the note is “SK-MEL-28, 4 µM”, the target mRNA inhibition is 79%.
In the case of TCCTGTAGTATGAGAA (sugars k3 d10 k3, PS), the target mRNA inhibition (MM.1R, 1 µM) came to 22%.
As for CCCCATTGCCTGTTAA (sugars k3 d10 k3, PS), the target mRNA inhibition (SK-MEL-28, 4 µM) amounted to 20%.
On the same count and under the same terms, for TGCCTTGTGACATAAA (sugars k3 d10 k3, PS) the value was 45%; for ACAGAAGGGCAACAGT (sugars k3 d10 k3, PS), 43%.
As for “CTTGATAAAGGCTGAA (sugars kddddddddddkekek, PS)”, under “MM.1R, 1 µM”, the target mRNA inhibition amounted to 17%.
On the same count and under the same terms, for CATGATAAGGCACTAC (sugars k3 d10 k3, PS) the value was -6%; for CAGCCGAAGCATTTTA (sugars k3 d10 k3, PS), 0%.
Regarding GGAGTGCAGGAGAGGC (sugars k3 d10 k3, PS), the target mRNA inhibition (SK-MEL-28, 4 µM) is 16%.
Regarding TTACTCCGCTGAGTGG (sugars k3 d10 k3, PS), where the note is “MM.1R, 1 µM”, the target mRNA inhibition was -4%.
Regarding ACTGGCATCGAGACGG (sugars k3 d10 k3, PS), the target mRNA inhibition (SK-MEL-28, 4 µM) was 79%.
As for TTACTTCCCTGAGAAA (sugars k3 d10 k3, PS), where the note is “SK-MEL-28, 4 µM”, the target mRNA inhibition stood at 20%.
Turning to CTTGAGGTTTTCCTAA (sugars k3 d10 k3, PS), under “SK-MEL-28, 4 µM”, the target mRNA inhibition turned out to be 40%.
Take “ACAGTGACTTGCATCC (sugars kkddddddddddkeke, PS)”: the target mRNA inhibition (MM.1R, 1 µM) worked out at 30%.
Consider TGCCGAACTCTCCGCC (sugars k3 d10 k3, PS), for which the target mRNA inhibition (SK-MEL-28, 4 µM) is 43%.
In the case of CCATATTGGAAACCAG (sugars k3 d10 k3, PS), the target mRNA inhibition (MM.1R, 1 µM) was 10%.
Take “CAAGTGTCTAAAGTCC (sugars k2 d9 e3 k2, PS)”: the target mRNA inhibition (MM.1R, 1 µM) is 22% and 31%.
Regarding CCGCAGCTCACCGCGC (sugars k3 d10 k3, PS), the target mRNA inhibition (SK-MEL-28, 4 µM) was found to be 36%.
Still for that read-out and setting: for ATTAAAGGGTAAGCAC (sugars k3 d10 k3, PS) the value was 32%; for GGCGAGTGGCGGGTAG (sugars k3 d10 k3, PS), 8%.
In the case of “TTATATACTGGTTGGT (sugars kkdddddddddekeke, PS)”, the target mRNA inhibition (MM.1R, 1 µM) turned out to be 64%.
For the sequence CATTCACACTGCCGTG (sugars k3 d10 k3, PS), the target mRNA inhibition (MM.1R, 1 µM) was found to be 6%.
Regarding TTGAAATAAGCTCATC (sugars k3 d10 k3, PS), the target mRNA inhibition (SK-MEL-28, 4 µM) stood at 33%.
On to TCCCTAGGTCATACCC (sugars k3 d10 k3, PS), for which, where the note is “SK-MEL-28, 4 µM”, the target mRNA inhibition came out at 58%.
In the case of “GAAGTTTACACTGGAT (sugars kkdddddddddkdkdk, PS)”, the target mRNA inhibition (MM.1R, 1 µM) came out at 23%.
Consider TCTGAATTGTTACTAA (sugars k3 d10 k3, PS), for which, for the setting “SK-MEL-28, 4 µM”, the target mRNA inhibition stood at 35%.
Consider TAGTGTTCCAGGAGAT (sugars k3 d10 k3, PS), for which the target mRNA inhibition (MM.1R, 0.074 µM) is 15%; the target mRNA inhibition (MM.1R, 0.222 µM) was found to be 29%; the target mRNA inhibition (MM.1R, 0.666 µM) turned out to be 52%; the target mRNA inhibition (MM.1R, 1 µM) was determined as 53%; the target mRNA inhibition (MM.1R, 2 µM) worked out at 80%.
